Data as given in ChEMBL document CHEMBL1145000, “Nitro and amino substitution in the D-ring of 5-(2-dimethylaminoethyl)- 2,3-methylenedioxy-5H-dibenzo[c,h][1,6]naphthyridin-6-ones: effect on topoisomerase-I targeting activity and cytotoxicity” (J Med Chem, 2003).

Legend:
RPMI 8402 = experiment: Cytotoxic activity against human lymphoblast tumor cell line RPMI8402 after 4 days of treatment; format: functional, cell-based; conditions: RPMI 8402, 96 h
[1] = Cytotoxic activity against human lymphoblast tumor cell line CPT-K5 after 4 days of treatment; format: functional; conditions: CPT-K5, 96 h
[2] = target: T1, DNA topoisomerase 1 (Homo sapiens) (UniProt P11387)
T1 sequence (whole entry): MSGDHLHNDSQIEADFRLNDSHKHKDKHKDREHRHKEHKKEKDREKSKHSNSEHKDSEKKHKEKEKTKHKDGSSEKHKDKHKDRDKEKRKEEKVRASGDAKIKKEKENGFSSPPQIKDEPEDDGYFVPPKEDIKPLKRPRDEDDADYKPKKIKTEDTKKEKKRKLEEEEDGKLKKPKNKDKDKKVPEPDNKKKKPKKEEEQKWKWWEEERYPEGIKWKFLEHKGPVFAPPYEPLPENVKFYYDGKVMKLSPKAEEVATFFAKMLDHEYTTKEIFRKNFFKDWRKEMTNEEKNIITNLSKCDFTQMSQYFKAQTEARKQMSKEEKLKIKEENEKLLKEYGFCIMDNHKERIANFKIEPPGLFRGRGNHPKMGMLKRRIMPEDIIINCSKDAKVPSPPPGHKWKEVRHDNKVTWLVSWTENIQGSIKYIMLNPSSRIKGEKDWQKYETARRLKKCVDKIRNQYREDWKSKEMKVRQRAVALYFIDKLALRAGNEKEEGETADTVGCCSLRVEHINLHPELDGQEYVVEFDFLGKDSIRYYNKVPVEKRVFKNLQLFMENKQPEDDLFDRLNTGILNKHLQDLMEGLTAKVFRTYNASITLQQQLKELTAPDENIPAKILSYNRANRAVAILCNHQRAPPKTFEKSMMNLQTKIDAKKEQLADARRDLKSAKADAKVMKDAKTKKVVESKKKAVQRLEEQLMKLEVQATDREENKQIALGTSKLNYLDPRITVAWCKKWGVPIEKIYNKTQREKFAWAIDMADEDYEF
Description: Effective concentration required to cleave DNA, mediated by human DNA topoisomerase I (TOP1) reported as REC i.e. concentration relative to topotecan (assumed as 1)

Structure (SMILES)	IC50 (RPMI 8402) [nM]	IC50 [1] [nM]	REC [2]
CN(C)CCn1c(=O)c2ccc([N+](=O)[O-])cc2c2cnc3cc4c(cc3c21)OCO4	2	2800	0.1
CN(C)CCn1c(=O)c2ccc(N)cc2c2cnc3cc4c(cc3c21)OCO4	25	1000	0.5
COc1cc2c(=O)n(CCN(C)C)c3c4cc5c(cc4ncc3c2cc1OC)OCO5		900	
CN(C)CCn1c(=O)c2cccc(N)c2c2cnc3cc4c(cc3c21)OCO4	340	3200	15
CN(C)CCn1c(=O)c2cc(N)ccc2c2cnc3cc4c(cc3c21)OCO4	80	380	8
CN1CCN(c2ccnc3cc4c(cc23)OCO4)C(=O)c2cc([N+](=O)[O-])ccc21	3000	> 10000	1000
CN(C)CCn1c(=O)c2cccc([N+](=O)[O-])c2c2cnc3cc4c(cc3c21)OCO4	4800	> 10000	1000
CN(C)CCn1c(=O)c2cc([N+](=O)[O-])ccc2c2cnc3cc4c(cc3c21)OCO4	3	330	0.2
COc1cc([C@@H]2c3cc4c(cc3[C@@H](O[C@@H]3O[C@@H]5CO[C@@H](c6cccs6)O[C@H]5[C@H](O)[C@H]3O)[C@H]3COC(=O)[C@H]23)OCO4)cc(OC)c1O [TENIPOSIDE]		280	> 1000
CN(C)CCn1c(=O)c2ccccc2c2cnc3cc4c(cc3c21)OCO4	60	950	6
CCCCn1c(=O)c2cc(N)ccc2c2cnc3cc4c(cc3c21)OCO4	1250	> 10000	500
CC[C@@]1(O)C(=O)OCc2c1cc1n(c2=O)Cc2cc3ccccc3nc2-1 [CAMPTOTHECIN]	5		0.5
CCCCn1c(=O)c2cc([N+](=O)[O-])ccc2c2cnc3cc4c(cc3c21)OCO4	240	> 10000	10
COc1cc2c(=O)n(CCN(C)C)c3c4cc5c(cc4nnc3c2cc1OC)OCO5		600	0.3
CC[C@@]1(O)C(=O)OCc2c1cc1n(c2=O)Cc2cc3c(CN(C)C)c(O)ccc3nc2-1 [TOPOTECAN]		> 50000	1
